Reference: patent US11572590B2, “Methods for evaluating tumor cell spheroids using 3D microfluidic cell culture device” (Dana-Farber Cancer Institute, Inc., priority 2017, dated 2023)
Where two headings read alike, the source gives them in different places.

Key:
Experiment in all cases: SelectScreen Kinase Profiling, single point inhibition and IC50 for off-target kinases
Assay type in all cases: biochemical
off-target kinases [1] = biological target: off-target kinases (Homo sapiens, UniProt O00311); details: CDC7/DBF4, LanthaScreen Binding
off-target kinases [2] = biological target: off-target kinases (Homo sapiens, UniProt P05771); details: PRKCB1 (PKC beta I), ZLYTE, ATP Km app
off-target kinases [3] = biological target: off-target kinases (Homo sapiens, UniProt P17252); details: PRKCA (PKC alpha), ZLYTE, ATP Km app
off-target kinases [4] = biological target: T1, off-target kinases (Homo sapiens, UniProt Q7L7X3); details: TAOK1, LanthaScreen Binding
T1 sequence (Q7L7X3 1-1001): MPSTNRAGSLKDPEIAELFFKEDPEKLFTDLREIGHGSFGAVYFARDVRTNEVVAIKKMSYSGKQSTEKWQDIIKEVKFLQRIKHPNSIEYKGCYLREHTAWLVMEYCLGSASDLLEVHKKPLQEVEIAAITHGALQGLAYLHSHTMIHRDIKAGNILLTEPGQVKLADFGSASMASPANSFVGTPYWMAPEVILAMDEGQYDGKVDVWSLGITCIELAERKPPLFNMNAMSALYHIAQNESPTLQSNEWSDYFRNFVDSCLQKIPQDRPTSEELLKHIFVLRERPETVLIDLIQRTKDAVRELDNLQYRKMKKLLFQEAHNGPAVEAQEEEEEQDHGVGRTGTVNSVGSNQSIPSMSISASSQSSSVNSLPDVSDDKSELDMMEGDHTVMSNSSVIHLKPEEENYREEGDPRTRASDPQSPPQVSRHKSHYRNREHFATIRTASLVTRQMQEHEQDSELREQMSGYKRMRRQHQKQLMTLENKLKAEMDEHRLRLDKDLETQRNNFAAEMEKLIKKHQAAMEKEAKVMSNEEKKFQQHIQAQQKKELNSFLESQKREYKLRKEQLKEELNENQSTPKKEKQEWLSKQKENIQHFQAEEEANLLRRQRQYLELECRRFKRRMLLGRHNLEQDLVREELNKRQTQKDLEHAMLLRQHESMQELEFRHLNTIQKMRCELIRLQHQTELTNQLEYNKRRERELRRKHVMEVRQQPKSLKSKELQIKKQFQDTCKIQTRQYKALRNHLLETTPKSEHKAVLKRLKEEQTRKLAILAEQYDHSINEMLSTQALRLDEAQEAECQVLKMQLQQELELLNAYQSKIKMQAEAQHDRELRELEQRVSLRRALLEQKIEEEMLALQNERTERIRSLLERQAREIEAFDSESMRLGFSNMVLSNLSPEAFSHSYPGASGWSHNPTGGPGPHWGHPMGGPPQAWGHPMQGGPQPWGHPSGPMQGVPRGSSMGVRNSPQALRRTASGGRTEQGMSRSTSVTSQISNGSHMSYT

off-target kinases [5] = biological target: off-target kinases (Homo sapiens, UniProt Q96RG2); details: PASK, ZLYTE, ATP Km app
off-target kinases (Homo sapiens, UniProt Q96RG2), sequence (Q96RG2 whole entry): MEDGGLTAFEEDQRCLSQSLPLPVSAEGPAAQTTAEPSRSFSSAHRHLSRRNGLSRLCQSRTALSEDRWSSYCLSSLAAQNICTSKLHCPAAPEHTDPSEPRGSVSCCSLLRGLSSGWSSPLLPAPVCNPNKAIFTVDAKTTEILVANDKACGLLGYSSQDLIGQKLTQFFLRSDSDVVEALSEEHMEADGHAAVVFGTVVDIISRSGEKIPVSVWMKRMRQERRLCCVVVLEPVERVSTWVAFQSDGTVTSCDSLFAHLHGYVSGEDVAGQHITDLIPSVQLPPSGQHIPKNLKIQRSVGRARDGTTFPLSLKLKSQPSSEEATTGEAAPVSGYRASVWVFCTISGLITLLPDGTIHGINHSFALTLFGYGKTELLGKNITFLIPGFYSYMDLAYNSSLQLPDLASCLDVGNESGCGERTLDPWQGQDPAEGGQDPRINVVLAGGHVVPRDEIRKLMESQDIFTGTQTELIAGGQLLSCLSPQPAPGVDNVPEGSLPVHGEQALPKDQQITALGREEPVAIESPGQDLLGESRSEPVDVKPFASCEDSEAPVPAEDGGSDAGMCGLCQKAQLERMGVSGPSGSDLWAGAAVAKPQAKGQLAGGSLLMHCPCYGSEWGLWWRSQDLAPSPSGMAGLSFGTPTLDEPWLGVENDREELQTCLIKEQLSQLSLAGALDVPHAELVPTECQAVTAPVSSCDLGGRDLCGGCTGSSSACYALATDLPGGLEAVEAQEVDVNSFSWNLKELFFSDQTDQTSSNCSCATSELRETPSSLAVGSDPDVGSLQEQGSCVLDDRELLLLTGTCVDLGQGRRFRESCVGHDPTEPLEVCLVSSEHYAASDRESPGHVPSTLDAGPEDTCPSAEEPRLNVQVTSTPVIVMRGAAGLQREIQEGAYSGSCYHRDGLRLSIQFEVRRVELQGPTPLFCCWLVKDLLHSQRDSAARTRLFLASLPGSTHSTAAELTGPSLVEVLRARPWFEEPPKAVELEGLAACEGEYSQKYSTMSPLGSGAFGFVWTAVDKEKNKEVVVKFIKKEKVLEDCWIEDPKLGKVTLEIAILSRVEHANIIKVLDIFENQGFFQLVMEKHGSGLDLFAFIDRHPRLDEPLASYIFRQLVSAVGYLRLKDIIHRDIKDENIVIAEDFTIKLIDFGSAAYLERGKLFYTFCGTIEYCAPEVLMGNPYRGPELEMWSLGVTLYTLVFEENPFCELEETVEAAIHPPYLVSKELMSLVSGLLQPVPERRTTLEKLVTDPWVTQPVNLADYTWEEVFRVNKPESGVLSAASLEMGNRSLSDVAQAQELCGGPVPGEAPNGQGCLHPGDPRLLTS

off-target kinases (Homo sapiens, UniProt P05771), sequence (P05771 whole entry): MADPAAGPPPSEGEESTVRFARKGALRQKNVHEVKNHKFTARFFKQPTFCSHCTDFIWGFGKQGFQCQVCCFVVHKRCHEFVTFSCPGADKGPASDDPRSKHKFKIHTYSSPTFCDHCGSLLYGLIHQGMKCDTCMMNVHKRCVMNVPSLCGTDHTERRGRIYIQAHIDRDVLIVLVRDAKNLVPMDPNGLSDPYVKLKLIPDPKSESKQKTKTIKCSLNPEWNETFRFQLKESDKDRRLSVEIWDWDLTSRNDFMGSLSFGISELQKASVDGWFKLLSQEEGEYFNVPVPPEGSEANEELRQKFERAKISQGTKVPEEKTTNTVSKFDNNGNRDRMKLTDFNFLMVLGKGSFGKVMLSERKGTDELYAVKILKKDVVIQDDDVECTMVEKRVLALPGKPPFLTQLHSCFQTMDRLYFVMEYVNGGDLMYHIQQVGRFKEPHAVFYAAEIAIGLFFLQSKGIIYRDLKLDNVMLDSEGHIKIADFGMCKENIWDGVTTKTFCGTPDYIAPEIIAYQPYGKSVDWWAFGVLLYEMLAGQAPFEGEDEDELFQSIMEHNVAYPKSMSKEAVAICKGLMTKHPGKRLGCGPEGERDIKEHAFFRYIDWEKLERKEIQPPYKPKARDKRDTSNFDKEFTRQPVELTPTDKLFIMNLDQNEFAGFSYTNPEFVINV
off-target kinases (Homo sapiens, UniProt O00311), sequence (O00311 whole entry): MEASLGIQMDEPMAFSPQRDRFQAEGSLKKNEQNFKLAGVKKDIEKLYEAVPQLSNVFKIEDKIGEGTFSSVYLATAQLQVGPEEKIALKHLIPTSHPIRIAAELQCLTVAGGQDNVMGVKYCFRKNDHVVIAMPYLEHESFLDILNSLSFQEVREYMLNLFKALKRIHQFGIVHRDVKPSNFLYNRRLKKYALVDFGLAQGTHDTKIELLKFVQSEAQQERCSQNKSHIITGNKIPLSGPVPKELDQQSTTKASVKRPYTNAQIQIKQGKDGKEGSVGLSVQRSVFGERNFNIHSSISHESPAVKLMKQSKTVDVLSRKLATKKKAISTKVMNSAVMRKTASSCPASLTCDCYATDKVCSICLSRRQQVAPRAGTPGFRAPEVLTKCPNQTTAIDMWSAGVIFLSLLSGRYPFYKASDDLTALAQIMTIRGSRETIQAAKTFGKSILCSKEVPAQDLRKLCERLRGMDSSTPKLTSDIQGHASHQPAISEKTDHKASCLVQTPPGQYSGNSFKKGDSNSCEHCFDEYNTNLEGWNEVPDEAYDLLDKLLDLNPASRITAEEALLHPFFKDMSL

N#Cc1cc(-c2ncnc(Nc3ccc(N4CCN(C5COC5)CC4)cc3)n2)ccc1OC1CCOCC1 [Compound 1, 5-(4-((4-(4-(oxetan-3-yl)piperazin-1-yl)phenyl)amino)-1,3,5-triazin-2-yl)-2-((tetrahydro-2H-pyran-4-yl)oxy)benzonitrile]
inhibition (off-target kinases [1]; read-out: % Inhibition 1): 100% | inhibition (off-target kinases [1]; read-out: % Inhibition 2): 97% | inhibition (off-target kinases [1]; read-out: % Inhibition Avg): 98% | inhibition (off-target kinases [2]; read-out: % Inhibition 1): 5% | inhibition (off-target kinases [2]; read-out: % Inhibition 2): 3% | inhibition (off-target kinases [2]; read-out: % Inhibition Avg): 4% | inhibition (off-target kinases [3]; read-out: % Inhibition 1): 0% | inhibition (off-target kinases [3]; read-out: % Inhibition 2): -5% | inhibition (off-target kinases [3]; read-out: % Inhibition Avg): -2% | inhibition (off-target kinases [4]; read-out: % Inhibition 1): 45% | inhibition (off-target kinases [4]; read-out: % Inhibition 2): 43% | inhibition (off-target kinases [4]; read-out: % Inhibition Avg): 44% | inhibition (off-target kinases [5]; read-out: % Inhibition 1): 3% | inhibition (off-target kinases [5]; read-out: % Inhibition 2): 1% | inhibition (off-target kinases [5]; read-out: % Inhibition Avg): 2%
